From ChEMBL document CHEMBL5696442, “Discovery of type II inhibitors of TGFβ-activated kinase 1 (TAK1) and mitogen-activated protein kinase kinase kinase kinase 2 (MAP4K2)” (J Med Chem, 2015) come the findings set out here.

As usually defined, the inhibition is the drop in the measured response relative to a control, in per cent. The term residual activity denotes what remains of the control signal, in per cent. A low value points to a large loss of activity.

In assay [1] the target is Ribosomal protein S6 kinase beta-2 (Homo sapiens) (UniProt Q9UBS0). Briefly: Inhibition of p70S6Kb ATP labeling site in human Huh-7 cell lysate at 1 uM by KiNativ Profiling analysis relative to control. In kind it is subcellular.
The target of assay [2] is 5'-AMP-activated protein kinase catalytic subunit alpha-2 (Homo sapiens) (UniProt P54646). The assay can be described thus: Inhibition of AMPK-alpha2 (unknown origin) at 1 uM by Ambit Kinomescan binding assay relative to control.
The target of assay [3] is SRSF protein kinase 3 (Homo sapiens) (UniProt Q9UPE1). The assay can be described thus: Inhibition of SRPK3 (unknown origin) at 1 uM by Ambit Kinomescan binding assay relative to control.
For assay [4], the target named is Wee1-like protein kinase (Homo sapiens) (UniProt P30291). Briefly: Inhibition of Wee1 Lys2 labeling site in human A-375 cells at 5 uM by KiNativ Profiling analysis relative to control. In kind it is cell-based.
Assay [5] deals with Serine/threonine-protein kinase Nek4 (Homo sapiens) (UniProt P51957). The assay can be described thus: Inhibition of NEK4 (unknown origin) at 1 uM by Ambit Kinomescan binding assay relative to control; values are per cent of control.
Assay [6] has as its target Serine/threonine-protein kinase MRCK gamma (Homo sapiens) (UniProt Q6DT37). The assay can be described thus: Inhibition of DMPK2 (unknown origin) at 1 uM by Ambit Kinomescan binding assay relative to control; values are per cent of control.
In assay [7] the target is Calcium/calmodulin-dependent protein kinase type 1D (Homo sapiens) (UniProt Q8IU85). The assay can be described thus: Inhibition of CAMK1D (unknown origin) at 10 uM by Ambit Kinomescan binding assay relative to control.
Assay [8] concerns the target T1, Serine/threonine-protein kinase Nek9 (Homo sapiens) (UniProt Q8TD19).
T1 sequence (whole entry): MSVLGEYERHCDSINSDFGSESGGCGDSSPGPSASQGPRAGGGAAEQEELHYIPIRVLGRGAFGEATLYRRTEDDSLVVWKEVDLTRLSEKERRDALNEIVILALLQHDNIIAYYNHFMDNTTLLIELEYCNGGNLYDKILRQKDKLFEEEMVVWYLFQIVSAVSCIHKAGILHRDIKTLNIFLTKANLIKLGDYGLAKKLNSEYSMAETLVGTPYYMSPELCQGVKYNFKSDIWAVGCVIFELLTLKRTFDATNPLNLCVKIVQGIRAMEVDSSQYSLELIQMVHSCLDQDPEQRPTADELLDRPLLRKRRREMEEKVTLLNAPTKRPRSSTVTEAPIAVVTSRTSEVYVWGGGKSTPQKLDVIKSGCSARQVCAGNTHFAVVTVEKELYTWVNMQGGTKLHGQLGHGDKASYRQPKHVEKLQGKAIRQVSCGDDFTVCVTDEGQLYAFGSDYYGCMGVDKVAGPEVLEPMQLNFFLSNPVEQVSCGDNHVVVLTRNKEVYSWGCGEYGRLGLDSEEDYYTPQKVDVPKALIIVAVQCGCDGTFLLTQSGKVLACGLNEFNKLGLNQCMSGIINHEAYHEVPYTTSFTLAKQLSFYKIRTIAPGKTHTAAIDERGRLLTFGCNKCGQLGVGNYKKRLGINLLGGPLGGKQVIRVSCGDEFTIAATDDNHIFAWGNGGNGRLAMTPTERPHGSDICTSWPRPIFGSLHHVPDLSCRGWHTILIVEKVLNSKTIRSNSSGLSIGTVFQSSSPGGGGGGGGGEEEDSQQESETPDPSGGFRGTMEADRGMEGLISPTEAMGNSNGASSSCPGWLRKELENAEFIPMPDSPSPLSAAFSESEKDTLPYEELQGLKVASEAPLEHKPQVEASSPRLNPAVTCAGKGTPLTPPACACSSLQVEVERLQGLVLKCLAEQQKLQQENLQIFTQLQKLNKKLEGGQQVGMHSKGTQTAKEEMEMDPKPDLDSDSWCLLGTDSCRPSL
The assay can be described thus: Inhibition of NEK9 K1 labeling site harbouring TEDDSLVVWKEVDLTR in human Huh-7 cells at 10 uM by KiNativ Profiling analysis relative to control. In kind it is cell-based.

Assay [9] has as its target Ribosomal protein S6 kinase alpha-1 (Homo sapiens) (UniProt Q15418). The assay can be described thus: Inhibition of RSK1 Domain 1 ACT labeling site in human Huh-7 cells at 10 uM by KiNativ Profiling analysis relative to control. In kind it is cell-based.
Assay [10] deals with T2, Dual specificity mitogen-activated protein kinase kinase 4 (Homo sapiens) (UniProt P45985).
T2 sequence (whole entry): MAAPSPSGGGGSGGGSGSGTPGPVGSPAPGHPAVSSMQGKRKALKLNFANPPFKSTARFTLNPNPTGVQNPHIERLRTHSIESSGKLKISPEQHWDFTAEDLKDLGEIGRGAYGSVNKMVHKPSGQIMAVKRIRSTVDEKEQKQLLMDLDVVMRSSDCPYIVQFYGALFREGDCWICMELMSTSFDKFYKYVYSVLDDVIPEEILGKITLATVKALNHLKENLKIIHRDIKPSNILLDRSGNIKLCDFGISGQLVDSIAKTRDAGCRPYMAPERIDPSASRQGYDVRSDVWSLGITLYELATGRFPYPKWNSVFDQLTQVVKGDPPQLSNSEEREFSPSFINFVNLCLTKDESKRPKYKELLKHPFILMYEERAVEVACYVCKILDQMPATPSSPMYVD
Briefly: Inhibition of MAP2K4 K2 labeling site harbouring IIHRDIKPSNILLDR in human Huh-7 cells at 1 uM by KiNativ Profiling analysis relative to control. The class given is cell-based.

Assay [11] has as its target Tyrosine-protein kinase ABL1 (Homo sapiens, UniProt P00519). The assay can be described thus: Inhibition of ABL1 (unknown origin) at 10 uM by Ambit Kinomescan binding assay relative to control; values are per cent of control.

Chain of Ribosomal protein S6 kinase alpha-1 (Homo sapiens) (Q15418 whole entry, the tested form may be a part): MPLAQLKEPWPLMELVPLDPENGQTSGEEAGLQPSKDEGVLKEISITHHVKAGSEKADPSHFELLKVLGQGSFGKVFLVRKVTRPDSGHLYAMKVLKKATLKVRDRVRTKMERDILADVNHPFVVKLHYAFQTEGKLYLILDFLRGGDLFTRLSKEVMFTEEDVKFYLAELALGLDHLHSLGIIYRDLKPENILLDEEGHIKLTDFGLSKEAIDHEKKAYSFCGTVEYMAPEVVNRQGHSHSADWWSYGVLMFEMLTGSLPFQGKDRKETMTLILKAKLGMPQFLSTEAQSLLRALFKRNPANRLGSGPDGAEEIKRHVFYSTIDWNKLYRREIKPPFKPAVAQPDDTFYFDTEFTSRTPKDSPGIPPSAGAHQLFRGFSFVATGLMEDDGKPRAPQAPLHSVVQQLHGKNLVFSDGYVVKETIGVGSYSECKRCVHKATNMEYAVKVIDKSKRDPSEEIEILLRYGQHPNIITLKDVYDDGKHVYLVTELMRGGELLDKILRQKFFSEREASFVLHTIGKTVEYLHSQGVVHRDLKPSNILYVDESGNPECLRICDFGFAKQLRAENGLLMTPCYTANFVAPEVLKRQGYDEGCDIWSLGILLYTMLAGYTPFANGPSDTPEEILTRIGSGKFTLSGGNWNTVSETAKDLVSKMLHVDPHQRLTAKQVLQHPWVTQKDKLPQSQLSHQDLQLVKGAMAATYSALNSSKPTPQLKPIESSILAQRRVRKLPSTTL
Chain of Serine/threonine-protein kinase Nek4 (Homo sapiens) (P51957 whole entry, looked up): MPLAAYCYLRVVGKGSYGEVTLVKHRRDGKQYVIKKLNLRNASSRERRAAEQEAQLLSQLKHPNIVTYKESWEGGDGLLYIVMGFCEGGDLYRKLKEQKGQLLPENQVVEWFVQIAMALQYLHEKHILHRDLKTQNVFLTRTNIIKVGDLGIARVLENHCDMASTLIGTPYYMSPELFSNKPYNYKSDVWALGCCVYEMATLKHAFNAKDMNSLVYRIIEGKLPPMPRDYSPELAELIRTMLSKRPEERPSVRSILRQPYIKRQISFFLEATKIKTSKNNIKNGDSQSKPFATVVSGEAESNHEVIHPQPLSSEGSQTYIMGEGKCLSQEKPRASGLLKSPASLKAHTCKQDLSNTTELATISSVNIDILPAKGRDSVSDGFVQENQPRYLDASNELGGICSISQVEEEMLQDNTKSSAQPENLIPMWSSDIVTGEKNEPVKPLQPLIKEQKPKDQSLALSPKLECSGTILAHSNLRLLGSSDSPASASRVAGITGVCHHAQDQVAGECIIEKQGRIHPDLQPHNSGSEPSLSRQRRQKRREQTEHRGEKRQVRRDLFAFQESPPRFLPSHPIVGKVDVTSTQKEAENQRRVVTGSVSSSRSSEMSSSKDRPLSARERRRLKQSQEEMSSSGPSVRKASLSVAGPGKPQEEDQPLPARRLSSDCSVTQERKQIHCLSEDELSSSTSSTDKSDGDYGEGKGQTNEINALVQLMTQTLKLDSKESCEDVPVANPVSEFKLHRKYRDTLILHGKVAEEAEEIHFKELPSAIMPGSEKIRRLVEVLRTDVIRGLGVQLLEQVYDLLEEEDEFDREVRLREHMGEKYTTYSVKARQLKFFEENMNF
Chain of SRSF protein kinase 3 (Homo sapiens) (Q9UPE1 whole entry): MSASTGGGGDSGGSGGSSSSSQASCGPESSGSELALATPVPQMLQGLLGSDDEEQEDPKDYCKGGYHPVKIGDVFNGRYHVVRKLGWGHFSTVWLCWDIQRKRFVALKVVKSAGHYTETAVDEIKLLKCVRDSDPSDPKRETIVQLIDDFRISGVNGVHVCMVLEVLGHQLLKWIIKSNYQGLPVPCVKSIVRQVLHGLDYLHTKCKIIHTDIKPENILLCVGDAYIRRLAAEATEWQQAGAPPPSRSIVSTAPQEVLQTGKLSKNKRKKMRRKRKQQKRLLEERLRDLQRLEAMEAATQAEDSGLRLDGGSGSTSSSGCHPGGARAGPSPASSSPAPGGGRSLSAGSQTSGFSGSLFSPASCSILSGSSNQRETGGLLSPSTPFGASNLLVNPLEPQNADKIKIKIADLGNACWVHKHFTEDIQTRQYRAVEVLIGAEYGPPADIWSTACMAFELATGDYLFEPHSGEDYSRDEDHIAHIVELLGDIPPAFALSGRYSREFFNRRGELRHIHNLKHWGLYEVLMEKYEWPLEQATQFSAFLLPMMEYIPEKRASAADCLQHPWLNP
Chain of Calcium/calmodulin-dependent protein kinase type 1D (Homo sapiens) (Q8IU85 whole entry, looked up): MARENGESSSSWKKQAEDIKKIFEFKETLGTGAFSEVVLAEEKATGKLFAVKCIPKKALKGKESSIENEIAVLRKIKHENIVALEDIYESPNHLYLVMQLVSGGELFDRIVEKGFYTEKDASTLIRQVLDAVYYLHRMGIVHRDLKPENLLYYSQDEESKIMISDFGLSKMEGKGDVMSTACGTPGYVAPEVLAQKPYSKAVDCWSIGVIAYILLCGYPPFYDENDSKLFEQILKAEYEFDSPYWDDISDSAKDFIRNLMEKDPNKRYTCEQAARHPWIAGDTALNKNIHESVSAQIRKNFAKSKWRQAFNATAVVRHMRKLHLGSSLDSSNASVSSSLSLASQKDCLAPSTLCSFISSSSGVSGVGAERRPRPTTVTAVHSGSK
Chain of 5'-AMP-activated protein kinase catalytic subunit alpha-2 (Homo sapiens) (P54646 whole entry, looked up): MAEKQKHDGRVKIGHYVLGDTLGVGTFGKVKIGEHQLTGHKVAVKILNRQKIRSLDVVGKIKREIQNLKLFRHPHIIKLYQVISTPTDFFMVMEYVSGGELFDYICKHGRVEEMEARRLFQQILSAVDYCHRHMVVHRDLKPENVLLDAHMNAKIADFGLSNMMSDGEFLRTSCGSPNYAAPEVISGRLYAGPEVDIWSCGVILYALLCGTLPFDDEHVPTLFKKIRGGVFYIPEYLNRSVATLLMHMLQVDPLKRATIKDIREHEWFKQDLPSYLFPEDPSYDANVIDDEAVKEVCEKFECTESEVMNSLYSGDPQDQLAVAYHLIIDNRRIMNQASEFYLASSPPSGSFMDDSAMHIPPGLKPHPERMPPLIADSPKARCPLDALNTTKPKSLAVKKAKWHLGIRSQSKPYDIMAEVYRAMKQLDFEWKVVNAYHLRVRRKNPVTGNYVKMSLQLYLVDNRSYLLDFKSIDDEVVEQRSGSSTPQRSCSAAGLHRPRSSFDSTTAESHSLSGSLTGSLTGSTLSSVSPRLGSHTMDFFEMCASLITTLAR
Chain of Ribosomal protein S6 kinase beta-2 (Homo sapiens) (Q9UBS0 whole entry): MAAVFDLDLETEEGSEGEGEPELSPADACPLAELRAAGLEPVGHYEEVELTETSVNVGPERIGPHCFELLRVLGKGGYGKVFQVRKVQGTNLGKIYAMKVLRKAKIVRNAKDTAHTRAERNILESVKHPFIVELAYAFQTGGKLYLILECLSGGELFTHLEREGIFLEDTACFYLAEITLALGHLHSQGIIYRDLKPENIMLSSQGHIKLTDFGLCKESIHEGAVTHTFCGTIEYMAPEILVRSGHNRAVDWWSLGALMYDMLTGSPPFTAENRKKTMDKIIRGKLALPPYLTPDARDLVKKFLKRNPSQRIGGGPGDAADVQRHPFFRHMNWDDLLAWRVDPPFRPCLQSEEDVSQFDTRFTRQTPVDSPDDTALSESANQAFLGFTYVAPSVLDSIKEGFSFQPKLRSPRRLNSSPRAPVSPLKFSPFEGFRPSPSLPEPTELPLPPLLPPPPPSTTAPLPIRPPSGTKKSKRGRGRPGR
Chain of Wee1-like protein kinase (Homo sapiens) (P30291 whole entry, looked up): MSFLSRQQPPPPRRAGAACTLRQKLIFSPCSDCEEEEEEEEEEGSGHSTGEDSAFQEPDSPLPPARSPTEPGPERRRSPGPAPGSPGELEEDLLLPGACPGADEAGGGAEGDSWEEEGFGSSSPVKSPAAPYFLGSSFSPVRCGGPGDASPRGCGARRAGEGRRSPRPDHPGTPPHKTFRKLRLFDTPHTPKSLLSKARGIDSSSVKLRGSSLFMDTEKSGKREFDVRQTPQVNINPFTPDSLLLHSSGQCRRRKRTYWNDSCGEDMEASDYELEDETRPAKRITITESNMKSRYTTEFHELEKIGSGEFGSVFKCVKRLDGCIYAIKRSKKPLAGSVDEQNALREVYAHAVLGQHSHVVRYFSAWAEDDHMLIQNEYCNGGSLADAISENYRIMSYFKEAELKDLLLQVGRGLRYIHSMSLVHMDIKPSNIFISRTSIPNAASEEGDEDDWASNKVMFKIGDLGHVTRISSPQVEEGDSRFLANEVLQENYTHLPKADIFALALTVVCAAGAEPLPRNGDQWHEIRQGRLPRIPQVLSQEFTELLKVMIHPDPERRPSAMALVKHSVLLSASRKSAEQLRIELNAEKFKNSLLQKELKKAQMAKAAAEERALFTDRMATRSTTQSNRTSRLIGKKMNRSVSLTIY

With `CNc1cc(Oc2cc(C(=O)Nc3cc(N4CCN(C)CC4)cc(C(F)(F)F)c3)ccc2C)ncn1`, the inhibition in [1] is 2.8%.
`CCN1CCN(Cc2ccc(NC(=O)c3ccc(C)c(/C=C/c4cnc5[nH]ccc5c4OC)c3)cc2C(F)(F)F)CC1`: the inhibition in assay [2] was 61%; in assay [3], 37%; in assay [4], -0.1%. The residual activity in assay [5] is 100%; in [6], 76%.
With `CCN1CCN(Cc2ccc(NC(=O)c3ccc(C)c(Oc4ccnc5[nH]ccc45)c3)cc2C(F)(F)F)CC1`, the inhibition in assay [7] was 6.2%; in assay [8] it was 18.6%; in assay [9] it was 3.4%; in assay [10] it was -0.9%. Besides, the percent of control in assay [11] turned out to be 0.1%.
